This note sets out measurements from publication PMC6270821, “ROS-Mediated Cytotoxic Effect of Copper(II) Hydrazone Complexes against Human Glioma Cells” (Molecules, 2014).

The subject of assay [1] is U87 (p53 wild-type glioblastoma multiforme) cells. Briefly: MTT cytotoxicity assay, U87 cells. Particulars: for IC50: MTT, 48 h treatment; for selectivity index (SI = IC50MRC5/IC50tumor cell), U87: U87 vs MRC5. The assay is classed as cell-based, human. The protocol: (§1) The in vitro cytotoxic effects of H2AcMe, H2BzMe and complexes 1 and 2 against wild type p53 U87 and mutant p53 T98 glioblastoma cells and against MRC-5 fibroblasts cells were tested using cisplatin as a positive control. To determine the IC50 (concentration that inhibits 50% of cell survival) values the cytotoxic effects were quantified using the 3-(4,5-dimethyl-2-thioazolyl)-2,5-diphenyl tetrazolium bromide (MTT) colorimetric assay. All tested compounds were cytotoxic against both glioma cell lines in a dose-dependent way. The IC50 values (see Table 1) were found in the micromolar range. Despite their cytotoxic activity, all compounds were less toxic to fibroblasts cells than cisplatin. CuCl2 evoked only mild cytotoxicity in all cell lineages with IC50 higher than 100 µM.
(§2) U87 (p53 wild-type glioblastoma multiforme) and T98 (p53 mutant glioblastoma multiforme) malignant human tumor cells and MRC5 (Human Fetal Lung Fibroblast) cells were obtained from the American Type Culture Collection (ATCC, Manassas, VA, USA). Cell lines were grown as monolayer in Dulbecco’s Modified Eagle’s Medium (DMEM, Gibco, Rockville, MD, USA), supplemented with 10% fetal bovine serum (Cultilab, Campinas, São Paulo, Brazil) and antibiotics (50 U/mL penicillin/50 […] streptomycin), in a humidified atmosphere air/CO2 (95%/5%) at 37 °C. Cells 80% confluents were used in all experiments. For all experiments, cells were seeded in 96-well plates, at a density of 1000 cells/well. After 24 h incubation cells were treated.
(§3) To determine the IC50 values the cytotoxic effects were quantified using the 3-(4,5-dimethyl-2-thioazolyl)-2,5-diphenyltetrazolium bromide (MTT) colorimetric assay. Briefly, cells were treated with increasing concentrations (10^−12, 10^−11, 10^−10, 10^−9, 10^−8, 10^−7, 10^−6, 10^−5, 10^−4 mol·L^−1) of either cisplatin (positive control) or test compounds (H2AcMe, H2BzMe, 1 and 2). The compounds were previously dissolved in dimethyl sulfoxide (DMSO) and the final concentrations were adjusted in DMEM in such manner that the final DMSO concentration was lower than 0.5%. Following 48 h treatment, MTT reagent was added to each well. Following another 4 h of incubation at 37 °C, DMSO was added to each well to dissolve formazan precipitate and absorbance was measured at 570 nm. Tests using DMSO (0.5% in DMEM) as negative control were carried out in parallel. All tests were performed in quadruplicates with full agreement between the results. Statistical analysis was carried out by the unpaired, one-tailed Student’s t testing using a p value of 0.05. A value of p < 0.05 was considered significant.
For orientation: Formazan colour is commonly taken as a measure of viable cells.

Assay [2] has as its system MRC5 (Human Fetal Lung Fibroblast) cells. Nature of the assay: MTT cytotoxicity assay, MRC5 fibroblasts. The assay is classed as cell-based. The following applies: 48 h treatment. The protocol:
as §1, §2, §3

Assay [3] has as its target T1, bovine serum albumin (BSA) (Bos taurus, UniProt P02769).
T1 construct: purchased Sigma-Aldrich Brasil
Briefly: Fluorescence quenching of BSA. The format is binding. Particulars: for quenching of BSA fluorescence emission intensity: 1.0 µM BSA, up to 10.0 µM compound, excitation 280 nm, pH 7.20, 25 °C; for number of binding sites n (BSA): Scatchard equation; for binding constant K (BSA, Scatchard): phosphate buffer pH 7.20, 25 °C; for Stern-Volmer quenching constant Ksv (BSA): λ = 345 nm, 25 °C. How it is done: Based on fluorescence data for λ = 345 nm at 25 °C, the Stern-Volmer quenching constant (Ksv) and the bimolecular quenching rate constant (kq) were obtained using the classical Stern-Volmer equation (Equation (3)). The value of kq was calculated by the Ksv/τ0 ratio, where τ0 is the average lifetime of the fluorophore in the absence of quencher (τ0 =10 ns for BSA).
The interaction of complexes 1 and 2 with bovine serum albumin (BSA) was studied in phosphate buffer (8.3 mM, pH = 7.20). Stock solution of BSA (0.5 mM) was prepared in phosphate buffer and stored in the dark in the refrigerator for further use. The stock solutions of complexes were freshly prepared by first dissolving the compounds in DMF and then making the dilutions with phosphate buffer (pH = 7.20). The amount of DMF was kept less than 5% (by volume) for each set of experiment and had no effect on any experimental results.
The binding of the copper(II) complexes to BSA was studied using fluorescence spectra. The emission spectra were recorded in the 295–600 nm range with excitation at 280 nm. The excitation and emission slit widths and scan rates were constantly maintained for all the experiments. BSA solution (1.0 µM) was titrated by successive additions of a stock solution of the complexes (50 mM) using a micropipette. All experiments were performed at 298 K. The synchronous fluorescence spectra of BSA varying the concentration of 1 and 2 were recorded at ∆λ (difference between excitation and emission wavelength) = 15 nm and ∆λ = 60 nm.
If it is assumed that the binding of compounds with BSA occurs at equilibrium, the equilibrium binding constant can be analyzed according to the Scatchard equation [28].

Assay [4] deals with T98 (p53 mutant glioblastoma multiforme) cells. Briefly: MTT cytotoxicity assay, T98 cells. The assay is classed as cell-based, human. Particulars: for IC50: MTT, 48 h treatment; for selectivity index (SI = IC50MRC5/IC50tumor cell), T98: T98 vs MRC5. How it is done: as §1, §2, §3

T1 sequence (P02769 25-607): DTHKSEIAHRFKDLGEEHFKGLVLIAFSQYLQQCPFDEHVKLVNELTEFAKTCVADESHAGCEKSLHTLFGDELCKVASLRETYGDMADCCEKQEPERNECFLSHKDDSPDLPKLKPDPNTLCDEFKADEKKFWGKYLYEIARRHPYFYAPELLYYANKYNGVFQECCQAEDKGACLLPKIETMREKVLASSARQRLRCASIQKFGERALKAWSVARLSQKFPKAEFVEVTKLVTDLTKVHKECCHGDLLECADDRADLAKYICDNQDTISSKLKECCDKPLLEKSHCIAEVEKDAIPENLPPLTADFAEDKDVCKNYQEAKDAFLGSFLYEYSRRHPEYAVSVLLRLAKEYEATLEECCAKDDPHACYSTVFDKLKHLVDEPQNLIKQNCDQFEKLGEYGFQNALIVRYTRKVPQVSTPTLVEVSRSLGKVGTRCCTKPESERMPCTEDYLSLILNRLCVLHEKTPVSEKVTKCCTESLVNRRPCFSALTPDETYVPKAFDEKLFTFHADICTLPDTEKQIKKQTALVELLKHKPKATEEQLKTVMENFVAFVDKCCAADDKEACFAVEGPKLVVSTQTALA

In the case of `CC(=O)NN=C(C)c1ccccn1.[Cl][Cu][Cl]` [compound 1, [dichloro(2-acetylpyridineacetyl-hydrazone)copper(II)]], in assay [1], the IC50 worked out at 3.02 ± 0.85 µM and the “selectivity index (SI = IC50MRC5/IC50tumor cell), U87” value amounted to 7.45. Also, the IC50 in assay [2] amounted to 22.5 ± 3.13 µM. In addition, in assay [3], the “quenching of BSA fluorescence emission intensity” value is listed as ~ 35%; the “number of binding sites n (BSA)” value came out at 1.06 ± 0.01; the “binding constant K (BSA, Scatchard)” value is “(1.11 ± 0.04) × 10^5 M^−1”; the “Stern-Volmer quenching constant Ksv (BSA)” value is “(0.55 ± 0.01) × 10^5 M^−1”. Also, in assay [4], the IC50 turned out to be 5.08 ± 0.41 µM and the “selectivity index (SI = IC50MRC5/IC50tumor cell), T98” value is 4.42.
In the case of `CC(=O)NN=C(c1ccccc1)c1ccccn1.[Cl][Cu][Cl]` [compound 2, [dichloro(2-benzoylpyridineacetylhydrazone)copper(II)]], in assay [1], the concentration for half-maximal inhibition (IC50) came to 5.95 ± 0.74 µM and the “selectivity index (SI = IC50MRC5/IC50tumor cell), U87” value turned out to be 8.30. In addition, the IC50 in assay [2] came out at 49.4 ± 8.83 µM. Besides, in assay [3], the “quenching of BSA fluorescence emission intensity” value was ~ 40%; the “number of binding sites n (BSA)” value turned out to be 1.06 ± 0.01; the “binding constant K (BSA, Scatchard)” value is on record as “(1.37 ± 0.05) × 10^5 M^−1”; the “Stern-Volmer quenching constant Ksv (BSA)” value is “(0.68 ± 0.01) × 10^5 M^−1”. Further, in assay [4], the half-maximal inhibitory concentration (IC50) was determined as 29.4 ± 7.06 µM and the “selectivity index (SI = IC50MRC5/IC50tumor cell), T98” value amounted to 1.68.

The term IC50 denotes the midpoint of a concentration-inhibition curve. Low values mean greater potency, high ones weaker potency.
